Results reported in US20230067910A1, “NOVEL COMPOUNDS FOR THE DIAGNOSIS, TREATMENT AND PREVENTION OF DISEASES ASSOCIATED WITH THE AGGREGATION OF ALPHA-SYNUCLEIN” (MODAG GMBH, priority 2019, published 2023).
pKd: −log10 of the molar value. Where two headings read alike, the source gives them in different places.

Assays:
[1] = target: T1, aggregated alpha-synuclein (Homo sapiens, UniProt P37840); test: Saturation binding assay, protocol 2a, alpha-synuclein fibrils; conditions: for pKd: fibril-binding saturation assay, summary statement, read-out: KD values, alpha-synuclein fibrils; for Kd: saturation assay protocol 2a, [3H]-labeled compound, read-out: KD [nM] for aggregated alpha-synuclein; for Selectivity versus Abeta and tau46 fibrils: saturation binding to alpha-synuclein vs Abeta and tau46 fibrils
T1 construct: made in house; host or cells: E. coli
Procedure: (§1) Alpha-synuclein and tau46 were purified from E. coli according to established protocols (Nuscher B, et al., J. Biol. Chem., 2004; 279(21):21966-75), Aβ1-42 was obtained from rPeptide, Watkinsville, Ga., USA. Fibrils were prepared by aggregation of recombinant protein via constant agitation. In detail, 70 μM of alpha-synuclein mixed with 100 mM NaCl in 50 mM Tris, pH 7.0+0.02% NaN3 were incubated at 1,400 rpm, 37° C. for 96 h. 10 μM of tau46 were incubated with 0.03 mg/ml heparin in 50 mM Tris, pH=7.0 at 1,000 rpm, 37° C. for 72 h. Aβ1-42 was solved in 20 mM NaPi, pH=8.0+0.2 mM EDTA+0.02% NaN3 (Deeg A A, et al., Biochim. Biophys. Acta, 2015; 1850(9): 1884-90; Goedert M, et al. Nature, 1996; 383(6600): 550-3).
Sonicated αSYN (0.04 μM) or tau46 (0.4 μM) or Aβ1-42 (6 μM) fibrils diluted in PBS were incubated with decreasing concentrations of [^3H]-labeled compound (48 nM or 24 nM-[…]) in 50 mM Tris-base, 10% ethanol, 0.05% Tween20, pH 7.4. To determine non-specific binding, the respective unlabeled compound (400 nM) was added to a duplicate set of binding reactions.
Assay plates were incubated under agitation at 37° C. for 2 h, covered by plastic foil (Resealable tape, PerkinElmer, Waltham, Mass., USA). Prior to harvesting, a filter (Printed filtermat B, PerkinElmer, Waltham, Mass., USA) was incubated with 5 mg/mL polyethylenimine (PEI, Poly(ethyleneimine) solution, Sigma Aldrich Chemie GmbH, Taufkirchen, Germany) at 4° C. for 30 min. After incubation, bound and free ligands were separated by vacuum filtration using a harvester (Filtermate harvester, PerkinElmer, Waltham, Mass., USA). The filter was washed three times with buffer cooled to 4° C. and subsequently dried in the microwave oven for 2 min at medium power. Melt-on scintillator sheets (MeltiLex™ B/HS, PerkinElmer, Waltham, Mass., USA) were molten into the filter using a heating plate set to 120° C. After solidifying at room temperature, the filter was sealed in a plastic bag (Sample bag for MicroBeta®, PerkinElmer, Waltham, Mass., USA). Accumulation of tritium was counted in a liquid scintillation counter (Wallac MicroBeta® TriLux, 1450 LSC & Luminescence Counter, PerkinElmer, Waltham, Mass., USA) immediately. Radioactivity was plotted against the increasing tritium-labeled compound or cold compound concentrations. Data points were fitted using nonlinear regression analysis in GraphPad Prism (GraphPad Software, Inc., Version 7.03, La Jolla, Calif., USA).
The fibril-binding saturation assay provides KD values. This assay is performed with directly radioactively labeled compounds (e.g. ^3H labeling). The saturation binding assays were performed using as target structures fibrillar aggregates produced from recombinant human alpha-synuclein, Aβ1-42, and tau46, respectively.

[2] = target: T2, aggregated tau46 (Homo sapiens, UniProt P10636); test: Saturation binding assay, protocol 2a, tau46 fibrils; conditions: saturation assay protocol 2a, [3H]-labeled compound
T2 construct: made in house; host or cells: E. coli
Procedure: as §1
(§2) Sonicated αSYN (0.04 μM) or tau46 (0.4 μM) or Aβ1-42 (6 μM) fibrils diluted in PBS were incubated with decreasing concentrations of [^3H]-labeled compound (48 nM or 24 nM-[…]) in 50 mM Tris-base, 10% ethanol, 0.05% Tween20, pH 7.4. […]
(§3) Assay plates were incubated under agitation at 37° C. for 2 h, covered by plastic foil (Resealable tape, PerkinElmer, Waltham, Mass., USA). […] Accumulation of tritium was counted in a liquid scintillation counter (Wallac MicroBeta® TriLux, 1450 LSC & Luminescence Counter, PerkinElmer, Waltham, Mass., USA) immediately. Radioactivity was plotted against the increasing tritium-labeled compound or cold compound concentrations. […]

[3] = target: T3, aggregated Abeta (Homo sapiens, UniProt P05067); test: Saturation binding assay, protocol 2a, Abeta fibrils; conditions: saturation assay protocol 2a, [3H]-labeled compound
T3 construct: Aβ1-42 was obtained from rPeptide; purchased rPeptide, Watkinsville, Ga., USA
Procedure: as §1, §2, §3

[4] = target: T4, alpha-synuclein (sonicated fibrils) (Homo sapiens, UniProt P37840); test: Modified competition binding assay, protocol 3b, reference ligand [3H]-compound 1; conditions: reference ligand [3H]-compound 1 (1 nM)
T4 construct: made in house; host or cells: E. coli
Procedure: Fibrils were prepared by aggregation of recombinant protein via constant agitation. In detail, 70 μM of alpha-synuclein mixed with 100 mM NaCl in 50 mM Tris, pH 7.0+0.02% NaN3 were incubated at 1,400 rpm, 37° C. for 96 h. 10 μM of tau46 were incubated with 0.03 mg/ml heparin in 50 mM Tris, pH=7.0 at 1,000 rpm, 37° C. for 72 h.
Plates were incubated for 4.5 hours at RT covered by removable sealing tape (PerkinElmer, Waltham, Mass., USA).
Filtration and readout were performed as described for saturation binding assays.
The fibril competition assay provides Ki values. […] This assay is suitable for a screening of non-radioactive ligands.

[5] = system: H4 cells overexpressing alpha-synuclein hemi-Venus fusion constructs (V1S+SV2); test: Cellular model of aggregated alpha-synuclein-dependent toxicity, V1S+SV2 H4 cells; format: cell-based; conditions: 10 μM compound, 100 μM FeCl3, 0.75% DMSO, 48 h; for inhibition at 10 µM: read-out: Change in fraction of condensed nuclei (rel. to DMSO control) [%]
Procedure: (§4) To identify potential therapeutically useful effects, compounds were tested in two cellular models of aggregated alpha-synuclein-dependent toxicity in H4 cells. These cellular models allow for the inducible overexpression of alpha-synuclein hemi-Venus fusion constructs (V1S+SV2) or full-length alpha-synuclein (the model is described in detail in: Bartels M, Weckbecker D, Kuhn P H, Ryazanov S, Leonov A, Griesinger C, Lichtenthaler S F, Bötzel K, Giese A: Iron-mediated aggregation and toxicity in a novel neuronal cell culture model with inducible alpha-synuclein expression, Sci. Rep. 2019 Jun. 24; 9(1):9100). Moreover, addition of DMSO and FeCl3 promotes the aggregation of alpha-synuclein which is associated with an increase in cytotoxicity. The cell culture assay uses these effects by determining the change in the number of cells and the change in the percentage of condensed nuclei, which is indicative of apoptosis, in order to obtain information on which compounds show the most promising effects and thus might be therapeutically useful.
(§5) In these experiments, cells were incubated with 100 μM FeCl3 and 0.75% DMSO in the presence of 10 μM anle138c as a positive control, compounds 1 to 19 (10 μM), or DMSO as a negative control. After 48 h, the cells were imaged with an OPERA high-throughput imaging system and analyzed using Acapella software (Perkin Elmer). […] A reduction in the fraction of condensed nuclei (in the absence of a strong reduction in cell number) is indicative of a beneficial therapeutic effect.

[6] = system: H4 cells overexpressing full-length alpha-synuclein; test: Cellular model of aggregated alpha-synuclein-dependent toxicity, full-length alpha-synuclein H4 cells; format: cell-based; conditions: 10 μM compound, 100 μM FeCl3, 0.75% DMSO, 48 h; for inhibition at 10 µM: read-out: Change in fraction of condensed nuclei (rel. to DMSO control) [%]
Procedure: as §4, §5

[7] = In vivo biodistribution of [11C]-labeled compounds, small animal PET; conditions: [11C]-labeled compound, intravenous tail vein, mice; for half-life: mouse, brain, read-out: Clearance half-life (brain)
Procedure: [^11C]-labeled compound 1 and compound 2, respectively, were injected intravenously in the tail vein of mice. Mice were then imaged in a small animal PET instrument. For both compounds, a good blood-brain-barrier penetration with SUV values >1.5 was observed.

T2 sequence (P10636 1-412 isoform P10636-7): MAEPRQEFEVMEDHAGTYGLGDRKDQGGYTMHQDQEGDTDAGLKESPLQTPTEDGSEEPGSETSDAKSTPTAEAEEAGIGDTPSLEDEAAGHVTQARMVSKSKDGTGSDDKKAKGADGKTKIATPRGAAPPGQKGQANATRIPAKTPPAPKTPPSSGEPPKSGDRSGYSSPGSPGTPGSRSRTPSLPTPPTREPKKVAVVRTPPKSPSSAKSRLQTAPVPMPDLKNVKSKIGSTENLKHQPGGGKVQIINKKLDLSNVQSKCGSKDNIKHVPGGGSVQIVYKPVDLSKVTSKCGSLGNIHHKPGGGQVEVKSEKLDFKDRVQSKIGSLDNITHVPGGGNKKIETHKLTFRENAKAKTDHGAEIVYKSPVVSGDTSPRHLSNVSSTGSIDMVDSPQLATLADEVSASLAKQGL
T3 sequence (P05067 672-713 limits assumed): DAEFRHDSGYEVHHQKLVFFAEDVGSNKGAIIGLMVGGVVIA

| pKd [1] | Kd [1] [nM] | Selectivity versus Abeta and tau46 fibrils [1] | Kd [2] [nM] | Kd [3] [nM] | Ki ([4]; Table 4b, read-out: Ki (nM) alpha-synuclein (sonicated fibrils)) [nM] | Washout from the brain [7] | half-life [7] [min] | Ki ([4]; Table 6 comparison series, read-out: Ki (nM), sonicated alpha-synuclein fibrils) [nM] | Compound | Change in cell number (rel. to DMSO control) [%] [5] [%] | inhibition at 10 µM [5] [%] | Change in cell number (rel. to DMSO control) [%] [6] [%] | inhibition at 10 µM [6] [%] |
| --- | --- | --- | --- | --- | --- | --- | --- | --- | --- | --- | --- | --- | --- |
| > 8.00 | < 1 | good to excellent selectivity | > 15 | > 100 | 0.3 | rapid washout from the brain | 9 | – | CNc1ccc(-c2cc(-c3ccnc(Br)c3)[nH]n2)cc1 [Compound 2, 4-[5-(2-bromopyridin-4-yl)-1H-pyrazol-3-yl]-N-methylaniline] | −25.8 | 49.4 | −44.2 | 79 |
| > 8.00 | 7 | – | – | – | – | – | – | – | Fc1cc(-c2cc(-c3ccc4c(c3)OCO4)n[nH]2)ccn1 [Compound 12, 4-[3-(1,3-benzodioxol-5-yl)-1H-pyrazol-5-yl]-2-fluoropyridine] | −22.2 | -24.9 | −9.8 | -28.4 |
| > 8.00 | < 2 | good to excellent selectivity | > 5 | > 100 | – | rapid washout from the brain | 12 | 0.4 | CN(C)c1ccc(-c2cc(-c3ccnc(Br)c3)[nH]n2)cc1 [Compound 1, 4-[3-(4-dimethylamino-phenyl)-1H-pyrazol-5-yl]-2-bromopyridine] | −21.2 | 11.7 | −27.3 | 65.4 |
